Test results taken from paper PMC3214022, “Plasmodium falciparum Parasites Are Killed by a Transition State Analogue of Purine Nucleoside Phosphorylase in a Primate Animal Model” (PLoS ONE, 2011).
“And” between values parts separate entries of the source, which are not always exact repeats. Equal entries are not always repeated.

Tests used:
[1] = test system: P. falciparum (FVO strain); assay: Efficacy study: parasitaemia in infected Aotus monkeys (thick blood smears); type: in vivo, Aotus lemurinus lemurinus; details: for Parasitaemia: oral 50 mg kg^−1 twice a day for 7 days, monkeys ITM 1-3 = c3-c5
Description: (§1) Laboratory bred Aotus lemurinus lemurinus monkeys (0.75–0.89 kg) were maintained as described. […] Blood samples were collected before the treatment started (t = 0), 0.05 h, 0.5 h, 1 h, 2 h, 6 h, 24 h, 48 h, and 6, 12 and 18 days after the first dose from each monkey and processed as described below. Pharmacokinetic parameters were calculated using PKSolver. For efficacy studies, Aotus monkeys were inoculated intravenously with 5×10^6 parasites of the FVO strain of P. falciparum in an approved treatment protocol. […] Parasitaemia was determined by Giemsa-stained thick blood smears prepared daily from the marginal ear vein [41]. Blood samples were collected from each monkey and transferred to tubes containing lithium heparin, centrifuged and both plasma and blood cells were frozen at −80 °C until analysis. Animals received a physical examination and blood chemistry profiles were monitored after treatment as described previously. Any monkey not responding appropriately to treatment was cured of its infection with mefloquine (40 mg kg^−1). […] The day of clearance is defined as the first of three consecutive days in which the thick blood films are parasite negative. The day of recrudescence is the first of three consecutive days of positive thick blood films after a period of clearance. Suppression is defined as a transient decrease in the parasite count post-treatment without clearance.

[2] = test system: P. falciparum infected-erythrocytes; assay: Polyamine and purine levels in cultured cells after BCX4945 treatment (HPLC, UPLC/MS/MS); type: cell-based, Plasmodium falciparum; details: 5 µM BCX4945, 24 h
Description: (§2) Polyamines from 0.5 M PCA extracts were analyzed as the dansyl-derivatives by HPLC/fluorescence on a Waters Millennium system. Protein concentration was determined with a bicinchoninic acid (BCA) protein assay kit according to the manufacturer's instructions (Pierce) using BSA as a standard. Data from biological samples were normalized to the protein content.
(§3) Samples from blood cells, plasma and media were extracted and analyzed in duplicate. […] Samples were incubated for 20 min at 4 °C and neutralized with 5 M KOH at 10∶1 (v/v, HClO4/KOH) for 20 min at 4 °C. Plates were centrifuged (10 min at 4,000 rpm, 4°C) and supernatants were filtered through a MultiScreen® Filter Plate with Ultracel®-10 Membrane (Millipore). Metabolite and inhibitor levels were quantified by UPLC/MS/MS using a Xevo TQ mass spectrometer (Waters). […] Quantitative determination was performed in ESI positive-ion mode using multiple-reaction monitoring (MRM) mode. The ESI capillary voltage was 0.3 kV, source temperature was set at 150 °C and desolvation temperature at 450 °C. Data acquisition and analysis were carried out by MassLynx V4.1 and QuanLynx software (Waters). The concentration of the metabolites was calculated by interpolation of the observed analyte/internal standard peak-area ratio with the corresponding calibration curve.

in vivo = assay: in vivo; design: species or system Aotus lemurinus lemurinus
Description: as §3, §1

human erythrocytes = assay: Polyamine and purine levels in cultured cells after BCX4945 treatment (HPLC, UPLC/MS/MS); type: cell-based; details: uninfected erythrocytes, 5 µM BCX4945, 24 h
Description: as §2, §3

[3] = oral 50 mg kg^−1 twice a day for seven days

For `Nc1nc2c(CN3CC(O)C(CO)C3)c[nH]c2c(=O)[nH]1` (centres unmarked) [BCX4945, 4′-deaza-1′-aza-2′-deoxy-1′-(9-methylene)-Immucillin-G], which Parasitaemia ([1]; day 1 post-treatment) is on record?
Its Parasitaemia is 0 Parasites per µl×10^3.

What about the Parasitaemia ([1]; day of treatment 6) of the same compound?
The Parasitaemia was 0 Parasites per µl×10^3.

And the Parasitaemia ([1]; day −1 (before treatment))?
The Parasitaemia was 0.7 Parasites per µl×10^3 and 0.5 Parasites per µl×10^3.

And the “clearance of P. falciparum infection” value [1, 3]?
Its value is “cleared P. falciparum infections between the fourth and the seventh day of treatment”.

What about the “parasitaemia cleared, of the original infection” value [1, 3] of the same compound?
The value was greater than 99.99%.

And the “time monkeys remained parasite-negative post-treatment” value [1, 3]?
The value was “up to nine days”.

What about the “response to treatment (category)” value ([1]; oral BCX4945, Aotus model) of the same compound?
The value was “clearance and recrudescence”.

And the “Adenosine, cell pellet” value [2]?
Its value is 10±4 nmoles/mg protein.

What about the “Adenosine, supernatant” value [2] of the same compound?
The value was 0.4±0.2 (0.08) µM.

And the “BCX4945 level, cell pellet” value [2]?
Its value is 20±6 (0.004) nmoles/mg protein.

What about the “BCX4945 level, supernatant” value [2] of the same compound?
The value was 5±0.6 (0.0002) µM.

And the “Hypoxanthine, cell pellet” value [2]?
Its value is 0 (0.007) nmoles/mg protein.

What about the “Hypoxanthine, supernatant” value [2] of the same compound?
Its value is 0 (0.004) µM.

And the “Inosine, cell pellet” value [2]?
Its value is 19±5 nmoles/mg protein.

And the “Inosine, supernatant” value [2]?
The value was 60 µM and 61±5 (0.0001) µM.

What about the “MTA, cell pellet” value [2] of the same compound?
Its value is 0.6±0.1 nmoles/mg protein.

And the “MTA, supernatant” value [2]?
Its value is 0 µM.

What about the “MTI, cell pellet” value [2] of the same compound?
The value was 0.6±0.1 nmoles/mg protein.

And the “MTI, supernatant” value [2]?
Its value is 0.3±0.1 (0.03) µM.

What about the “Putrescine, cell pellet” value [2] of the same compound?
Its value is 0.2±0.1 (0.01) nmoles/mg protein.

And the “Spermidine, cell pellet” value [2]?
Its value is 1.1±0.3 (0.02) nmoles/mg protein.

What about the “Spermine, cell pellet” value [2] of the same compound?
Its value is 0.07±0.03 (0.01) nmoles/mg protein.

And the bioavailability (in vivo; Aotus lemurinus lemurinus)?
The bioavailability was 28%.

And the concentration at 24 h (in vivo; Aotus lemurinus lemurinus, po)?
Its concentration at 24 h is roughly 1200 nM.

And the “plasma concentration within 1 h of the first dose” value (in vivo; Aotus lemurinus lemurinus, po)?
Its value is “approximately 6 µM”.

What about the half-life (in vivo; monkey) of the same compound?
Its half-life is 1.2 to 1.3 h.

What about the half-life (in vivo; monkey, iv, 10 mg/kg) of the same compound?
The half-life was 1.3 h.

And the Cmax (in vivo; monkey, po, 50 mg/kg)?
The Cmax was no more than 15000 nM.

And the half-life (in vivo; monkey, po, 50 mg/kg)?
Its half-life is 1.2 h.

And the “Adenosine, cell pellet” value (human erythrocytes)?
The value was 2.60±0.03 (0.2) nmoles/mg protein.

What about the “Adenosine, supernatant” value (human erythrocytes) of the same compound?
Its value is 0.6±0.2 (0.2) µM.

What about the “BCX4945 level, cell pellet” value (human erythrocytes) of the same compound?
Its value is 36±12 (0.07) nmoles/mg protein.

What about the “BCX4945 level, supernatant” value (human erythrocytes) of the same compound?
Its value is 4.0±0.2 (0.01) µM.

What about the “Hypoxanthine, cell pellet” value (human erythrocytes) of the same compound?
Its value is 0 nmoles/mg protein.

And the “Hypoxanthine, supernatant” value (human erythrocytes)?
Its value is 0 (0.04) µM.

And the “Inosine, cell pellet” value (human erythrocytes)?
Its value is 37±6 (0.04) nmoles/mg protein.

What about the “Inosine, supernatant” value (human erythrocytes) of the same compound?
The value was 8±3 (0.08) µM.

What about the “MTA, cell pellet” value (human erythrocytes) of the same compound?
Its value is 0 nmoles/mg protein.

And the “MTA, supernatant” value (human erythrocytes)?
The value was 0 µM.

And the “MTI, cell pellet” value (human erythrocytes)?
Its value is 0 nmoles/mg protein.

What about the “MTI, supernatant” value (human erythrocytes) of the same compound?
The value was 0 µM.

And the “Putrescine, cell pellet” value (human erythrocytes)?
The value was 0 nmoles/mg protein.

And the “Spermidine, cell pellet” value (human erythrocytes)?
The value was 0.060±0.003 nmoles/mg protein.

What about the “Spermine, cell pellet” value (human erythrocytes) of the same compound?
The value was 0.030±0.002 nmoles/mg protein.
